Experimental data reported in patent US3991052A (priority 1975, dated 1976).
Values after ≈ are worked out from the molar mass of the structure shown.

What was measured:
Cryptococcus neoformans = test: MIC, standard agar-dilution assay; format: cell-based
Proteus morganii PR15 = test: MIC, standard agar-dilution assay; format: cell-based; conditions: Morganella morganii
[1] = system: Streptococcus faecalis X66; test: MIC, standard agar-dilution assay; format: cell-based; conditions: Enterococcus faecalis
Candida albicans = test: standard disc-diffusion assay; format: cell-based
Salmonella typhosa SA12 = test: MIC, standard agar-dilution assay; format: cell-based; conditions: Salmonella enterica
Candida tropicalis Z17 = test: MIC, standard agar-dilution assay; format: cell-based
Ceratocystis ulmi = test: MIC, standard agar-dilution assay; format: cell-based
[2] = system: Klebsiella pneumoniae KL14; test: MIC, standard agar-dilution assay; format: cell-based
Aspergillus flavus E = test: MIC, standard agar-dilution assay; format: cell-based
[3] = system: Pseudomonas solanacearum X185; test: microbe, parasite or virus in culture; format: cell-based; conditions: Ralstonia solanacearum
[4] = system: Staphylococcus aureus 3074; test: MIC, standard agar-dilution assay; format: cell-based
Serratia marcescens SE3 = test: MIC, standard agar-dilution assay; format: cell-based
Erwinia amylovora = test: MIC, standard agar-dilution assay; format: cell-based
[5] = system: Staphylococcus aureus 3055; test: MIC, standard agar-dilution assay; format: cell-based
Escherichia coli EC14 = test: MIC, standard agar-dilution assay; format: cell-based
Histoplasma capsulatum = test: microbe, parasite or virus in culture; format: cell-based
Salmonella typhimurium = test: MIC, standard agar-dilution assay; format: cell-based; conditions: Salmonella enterica
[6] = system: Bordetella bronchiseptica 16; test: MIC, standard agar-dilution assay; format: cell-based
[7] = system: Pseudomonas aeruginosa X239; test: MIC, standard agar-dilution assay; format: cell-based
[8] = system: Trichophyton mentagrophytes 27; test: MIC, standard agar-dilution assay; format: cell-based
[9] = system: Citrobacter freundii MX CF17; test: MIC, standard agar-dilution assay; format: cell-based; conditions: MXCF17
Blastomyces dermatitidis = test: MIC, standard agar-dilution assay; format: cell-based
C. albicans = test: dermal C. albicans infection in rabbits, topical treatment; format: in vivo; conditions: ten days treatment with 1% solution in propylene glycol
[10] = toxicity (LD50) in mice, intraperitoneal; conditions: mouse, in vivo, ip, intraperitoneally

COC1c2cc(Cl)c(O)cc2ON2C(=O)C3NC(=O)C12SS3 (stereo not drawn)
MIC (Cryptococcus neoformans): < 0.156 µg/mL
MIC (Proteus morganii PR15): > 100 µg/mL
MIC [1]: > 100 µg/mL
amount inhibiting Candida albicans (Candida albicans): less than 0.312 mcg per disc
MIC (Salmonella typhosa SA12): > 100 µg/mL
MIC (Candida tropicalis Z17): > 100 µg/mL
MIC (Ceratocystis ulmi): 12.5 µg/mL (≈ 34.6 µM)
MIC [2]: > 100 µg/mL
MIC (Aspergillus flavus E): 25 µg/mL (≈ 69.3 µM)
MIC [3]: > 100 µg/mL
MIC [4]: 0.78 µg/mL (≈ 2.16 µM)
MIC (Serratia marcescens SE3): > 100 µg/mL
MIC (Erwinia amylovora): 6.25 µg/mL (≈ 17.3 µM)
MIC [5]: 3.12 µg/mL (≈ 8.65 µM)
MIC (Escherichia coli EC14): > 100 µg/mL
MIC (Histoplasma capsulatum): 10 µg/mL (≈ 27.7 µM)
MIC (Salmonella typhimurium): > 100 µg/mL
MIC [6]: 50 µg/mL (≈ 139 µM)
MIC [7]: > 100 µg/mL
MIC [8]: 25 µg/mL (≈ 69.3 µM)
MIC [9]: > 100 µg/mL
MIC (Blastomyces dermatitidis): 10 µg/mL (≈ 27.7 µM)
lesions caused by a dermal C. albicans infection (C. albicans): reduced in severity and size
LD50 [10]: 106 mg/kg
